Experimental data from article PMC9353555, “Hemoclot Thrombin Inhibitor Assay and Expected Peak-Trough Levels of Dabigatran: A Multicenter Study” (Frontiers in Cardiovascular Medicine, 2022).
Like-named read-outs stand apart in the source and are kept apart here.

Assays:
[1] = Hemoclot thrombin inhibitor (HTI) assay of plasma dabigatran concentration; assay type: in vivo, human; conditions: for HTI-peak: peak (1.0–3.0 h post dose); for HTI-trough: trough (>10 h after previous dose)
Procedure: (§1) For detecting pharmacodynamics (PD) parameters, the sampling times were 0, 2, 8, 12 h after dabigatran administration respectively. In patients’ population, plasma sample obtained longer than 10 h after the previous dose was considered for trough concentration; average 2.0 h (range: 1.0–3.0 h) post dose was considered for peak concentration. The reference detection range refers to plasma dabigatran concentrations between the 2.5th and 97.5th percentiles of all values determined by HPLC-MS/MS.
(§2) Blood samples were collected via 2.7 ml sodium citrate tubes, then centrifuged for 15 min at 2,500 g at room-temperature. The plasma samples were stored at –70°C within 6 months until analysis.
(§3) Pharmacodynamic assessment was performed at a centralized facility in Peking University First Hospital. The HTI, PT, and APTT were measured on Sysmex CS-2100i (Sysmex, Kobe, Japan). PT and APTT were tested using Coagulation Method Assay Kits (Thromborel-S® and Actin®, Marburg, Germany). The normal reference range for the PT and APTT assays used in this study are 10.1–12.6 s for PT and 26.9–37.6 s for APTT. Concentration detection is divided into two standard curves, one is suitable for normal and slightly high concentration range, another one is suitable for low concentration range. When the concentration is below 120 ng/ml, the low concentration standard curve is switched to obtain a more accurate concentration value. […] PD assessment was all performed in our hospital.

PT = assay: Prothrombin time (PT) coagulation assay after dabigatran; assay type: in vivo, human; conditions: for PT-peak / PT-0 h / PT-trough: NVAF patients, 110 mg bid, target range 10.1–12.6 s; for PT-peak: peak (1.0–3.0 h post dose); for PT-0 h: pre-dose; for PT-trough: trough (>10 h after previous dose)
Procedure: as §1, §2, §3

[2] = set-up: method as in PMID 23718677; conditions: dabigatran 150 mg, American population; cited from earlier work
[3] = Plasma dabigatran concentration and pharmacokinetics by HPLC-MS/MS; assay type: in vivo, human; conditions: healthy subjects, single dose 150 mg; for AUC(0-t): 150 mg
Procedure: The venous blood samples were collected 0 h and post-dose at 16–19 time points in 3.0 ml EDTA-K2 tubes and centrifuged at 4°C for 10 min at 3,000 g. The plasma samples were stored at –80°C until analysis.
The total anti-thrombin effect from dabigatran etexilate is a result of dabigatran (alone) and dabigatran acylglucuronides. An assay for total dabigatran (the sum of free dabigatran and the contribution from dabigatran acylglucuronides) in plasma is developed, validated and applied ([21], [22]). Thus, dabigatran concentrations were determined by validated HPLC-MS/MS assays at Shimadzu 30 series, API 6500 (Applied Biosystems, Inc., American). The standard calibration curves with good linearity were built for dabigatran within the concentration range of 1.0–300.0 ng/mL, and the lower limit of quantitation (LOQ) was 1.0 ng/mL. The precision (% CV), intra-batch accuracy and inter-batch accuracy were within 6.2–9.2, 90.3–104.3, and 94.6–103.8%, respectively. PK parameters were analyzed by non-compartmental methods using Phoenix Win-Non-lin 7.0 (A Certara™ Company, Princeton, NJ, United States). Cmax (Maximum concentration) and Tmax (the time to Cmax) were obtained from the observed data, while terminal half-life (t1/2), plasma concentration vs. time from 0 to the last measurable time point (AUC0–t) were calculated.
as §1

APTT = assay: Activated partial thromboplastin (APTT) coagulation assay after dabigatran; assay type: in vivo, human; conditions: for APTT-peak / APTT-0 h / APTT-trough: NVAF patients, 110 mg bid, target range 26.9–37.6 s; for APTT-peak: peak (1.0–3.0 h post dose); for APTT-0 h: pre-dose; for APTT-trough: trough (>10 h after previous dose)
Procedure: as §1, §2, §3

[4] = 183 patients, 110 mg bid, HTI assay, about 500 blood samples
[5] = NVAF patients, 110 mg bid, HTI-derived concentration
[6] = NVAF patients, 110 mg bid, HTI-derived concentration, listed as dabigatran

In the case of `[H]/N=C(/N)c1ccc(NCc2nc3cc(C(=O)N(CCC(=O)O)c4ccccn4)ccc3n2C)cc1` [Dabigatran], the “expected peak levels range” value [1, 4] is reported as 95 to 196 ng/mL, the “expected trough levels range” value [1, 4] is reported as 36 to 92 ng/mL and the HTI-peak [1, 5] is reported as 145.57 ± 50.16 ng/mL. The HTI-peak [1, 6] was 145.57 ng/mL, the HTI-0 h ([1]; NVAF patients, 110 mg bid, pre-dose, HTI-derived concentration) was 4.06 ± 2.92 ng/mL and the HTI-trough [1, 5] was 63.74 ± 27.95 ng/mL. For the same compound, the HTI-trough [1, 6] was 63.74 ng/mL, the “HTI–2 h” value ([1]; healthy subjects, single dose 150 mg, 2 h, HTI-derived concentration) was 88.89 ± 79.08 ng/mL and the “HTI–8 h” value ([1]; healthy subjects, single dose 150 mg, 8 h, HTI-derived concentration) was 61.91 ± 27.46 ng/mL. The “HTI–12 h” value ([1]; healthy subjects, single dose 150 mg, 12 h, HTI-derived concentration) was 40.00 ± 16.63 ng/mL, the concentration at 0 h ([1]; human, plasma, oral, NVAF patients, 110 mg bid, pre-dose, HTI-derived concentration) was 4.06 ng/mL and the concentration at 0 h ([1]; human, plasma, oral, healthy subjects, single dose 150 mg, 0 h (pre-dose), HTI-derived concentration) was 2.99 ± 2.37 ng/mL. The concentration at 2 h ([1]; human, plasma, oral, healthy subjects, single dose 150 mg, 2 h, HTI-derived concentration) was 88.9 ng/mL, the concentration at 8 h ([1]; human, plasma, oral, healthy subjects, single dose 150 mg, 8 h, HTI-derived concentration) was 61.9 ng/mL and the concentration at 12 h ([1]; human, plasma, oral, healthy subjects, single dose 150 mg, 12 h, HTI-derived concentration) was 40 ng/mL. For the same compound, the PT-peak (PT) was 14.04 ± 3.50 s, the PT-peak (PT; listed as dabigatran) was 14.04 s and the PT-0 h (PT) was 15.58 ± 5.90 s. It also gave a PT-0 h (PT; listed as dabigatran) of 15.58 s, a PT-trough (PT) of 13.79 ± 6.15 s and a PT-trough (PT; listed as dabigatran) of 13.79 s. For the same compound, the “PT–0 h” value (PT; healthy subjects, single dose 150 mg, 0 h (pre-dose), reference range 10.1–12.6 s) was 11.74 ± 1.88 s, the “PT–2 h” value (PT; healthy subjects, single dose 150 mg, 2 h, reference range 10.1–12.6 s) was 12.83 ± 1.58 s and the “PT–8 h” value (PT; healthy subjects, single dose 150 mg, 8 h, reference range 10.1–12.6 s) was 12.44 ± 1.31 s. For the same compound, the “PT–12 h” value (PT; healthy subjects, single dose 150 mg, 12 h, reference range 10.1–12.6 s) was 11.97 ± 0.92 s, the reference detection range [2] was 27 to 411 ng/mL and the “C–2 h” value ([3]; 2 h, HPLC-MS/MS, mean ± SD) was 85.51 ± 73.77 ng/mL. The “C–8 h” value ([3]; 8 h, HPLC-MS/MS, mean ± SD) was 57.60 ± 23.46 ng/mL, the “C–12 h” value ([3]; 12 h, HPLC-MS/MS, mean ± SD) was 36.40 ± 3.15 ng/mL and the Cmax ([3]; mean ± SD) was 139.99 ± 55.61 ng/mL. For the same compound, the reference detection range ([3]; 2.5th to 97.5th percentiles of plasma concentrations by HPLC-MS/MS) was 33 to 159 ng/mL, the AUC(0-t) ([3]; human, plasma, oral, mean ± SD, read-out: AUC0–12) was 1290 ± 442 ng·h/mL and the AUC(0-t) ([3]; human, plasma, oral, mean ± SD, read-out: AUC0–t) was 1250 ± 442 ng·h/mL. For the same compound, the concentration at 0 h ([3]; human, plasma, oral, 0 h (pre-dose), HPLC-MS/MS, mean ± SD, read-out: C–0 h) was 0 ng/mL, the concentration at 2 h ([3]; human, plasma, oral, 2 h, HPLC-MS/MS, mean ± SD, read-out: C–2 h) was 85.5 ng/mL and the concentration at 8 h ([3]; human, plasma, oral, 8 h, HPLC-MS/MS, mean ± SD, read-out: C–8 h) was 57.6 ng/mL. For the same compound, the concentration at 12 h ([3]; human, plasma, oral, 12 h, HPLC-MS/MS, mean ± SD, read-out: C–12 h) was 36.4 ng/mL, the Tmax ([3]; human, plasma, oral, mean ± SD) was 3.61 ± 2.09 h and the half-life ([3]; human, plasma, oral, mean ± SD) was 8.78 ± 1.33 h. For the same compound, the APTT-peak (APTT) was 47.89 ± 4.43 s, the APTT-peak (APTT; listed as dabigatran) was 47.89 s and the APTT-0 h (APTT) was 36.47 ± 8.40 s. For the same compound, the APTT-0 h (APTT; listed as dabigatran) was 36.47 s, the APTT-trough (APTT) was 39.08 ± 9.74 s and the APTT-trough (APTT; listed as dabigatran) was 39.08 s. The “APTT–0 h” value (APTT; healthy subjects, single dose 150 mg, 0 h (pre-dose), reference range 26.9–37.6 s) was 27.78 ± 3.50 s, the “APTT–2 h” value (APTT; healthy subjects, single dose 150 mg, 2 h, reference range 26.9–37.6 s) was 39.69 ± 10.69 s and the “APTT–8 h” value (APTT; healthy subjects, single dose 150 mg, 8 h, reference range 26.9–37.6 s) was 38.52 ± 6.00 s. For the same compound, the “APTT–12 h” value (APTT; healthy subjects, single dose 150 mg, 12 h, reference range 26.9–37.6 s) was 35.22 ± 5.37 s.
